Measured values reported in US12589143B2, “Human anti-PD-L1 peptide vaccines and methods of their use” (priority 2019, dated 2026).
Values joined by “and” are separate entries in the source; they are usually repeats but may differ in a detail not shown here. Equal values may be shown once. Where no end group is shown, it is not given here.

Test system: MVF-PD-L1 peptide immunogen
Assay: Immunogenicity in Balb/c mice, experiment 1 (CT26 WT): ELISA of sera vs each MVF-PD-L1 peptide immunogen
Format: in vivo
Conditions: for Immunogenicity (titers) 1′ Conc. 1:: Balb/c mice
Protocol: Immunogenicity of MVF-PD-L1 B-cell epitopes. New Zealand White rabbits were immunized with 1 mg of each MVF-peptide immunogens dissolved in dd H2O emulsified (1:1) in Montanide ISA 720 vehicle (Seppic) with 333 μg of N-acetylglucosamine-3yl-acetyl-1-alanyl-d-isoglutamine (nor-MDP). Rabbits were boosted with the same doses at 3-week's intervals. Blood was collected via the central auricular artery in rabbits. Blood was collected weekly (1Y+3, 2Y+1, 2Y+2,2Y+3, 3Y+1, 3Y+2 and sera tested for antibody titers by ELISA using the immunogens MVF-PD-L1 peptides. Sera (terminal) from rabbit (3Y+3) immunized with MVF-PD-1 peptide immunogens were tested individually versus the immunogen by ELISA. 200 ng/well peptide were used in duplicates to coat the ELISA plates. Titers are defined as the highest dilution of sera with an absorbance value of 0.2 after subtracting the blank.
FIGS. 5A, 5B, 5C, and 5D show the experimental scheme to test the immunization with PD-L1 in Balb/c mice. […] Balb/c mice 6-8 weeks old, were immunized with MVF-peptide immunogens emulsified in ISA 720 with nor-MDP three times and three weeks apart. Mice were immunized with MVF-PD-L1 vaccine constructs [PD-L1(36-53), PD-L1(50-67), PD-L1(95-112), PD-L1(130-147)] prior to tumor challenge. Blood was collected weekly and sera tested for antibody titers by ELISA. Two weeks after the third immunization (3Y), the mice were engrafted with CT26 WT tumor cells 10^5 per mouse Control mice were treated twice weekly with PBS as negative control and twice weekly with anti-mPD-L1 mAb (10F.9G2) as positive control starting 2 days after tumor challenge. Tumor growths were observed twice weekly and measured by calipers.
Immunogenicity of MVF-PD-L1 peptides in BALB/c mice immunized with various peptide constructs. Sera collected weekly were tittered against each individual MVF-PD-L1 peptide immunogen. The Pink bar refers to titers versus PD-L1 130 and the red bar refers to titers versus PD-1 (92-110).
In order to verify the efficacy of the PD-L1 epitope vaccines in vivo in the CT26 carcinoma cell line, Balb/c mice (10 mice/group) were immunized with 100 μg each of MVF-PD-L1 (36-53), MVF-PD-L1 (50-67), MVF-PD-L1 (95-112) and MVF-PD-L1 (130-147) emulsified with nor-MDP and Montanide 720 (1:1 ratio) SCHEME 1A (FIG. 5A). As detailed in SCHEME 1A-D (FIGS. 5A, 5B, 5C, and 5D), mice were immunized 3 times at 3 weeks intervals. […] All PD-L1 epitopes elicited high titers of PD-L1 anti-peptide antibodies by ELISA. […] We also investigated the combination of PD-1(92-110) with PD-L1-130-147.
For each peptide, vaccine antibodies were raised in New Zealand white rabbits, purchased from Charles River Laboratories (Wilmington, MA, USA). Rabbits were immunized with 1 mg of MVF chimeric peptide emulsified in Montanide ISA 720 (Seppic, Paris, France) and boosted 3 times at three week intervals. For mouse experiments, mice, 6-8 weeks old, were immunized with 0.1 mg of peptide emulsified in ISA720 (1:1 ratio). Mice were boosted with the respective doses at 3-week intervals. Blood was then collected and sera were tested for antibody titers. Sera were collected weekly and peptide vaccine antibodies were purified by affinity chromatography using a protein A/G column and the concentration was measured using Spectrophometer. All experiments were performed in accordance with the U.S. Public Health Service Policy on Humane Care and Use of Laboratory animals and approved by the Ohio State University Institutional Animals Care and Use Committee, detailed in the accepted protocol.
6-8 weeks old BALB/c mice (Charles River, Wilmington, MA) were used as standard animal models. Mouse CT26 colon carcinoma cell line was purchased from American Type Culture Collection Cells and were regularly cultured in RPMI1640 medium containing 10% FBS. CT26/HER2 cells were kindly provided by M. Penichet. Vaccines were dissolved in sterile water and emulsified in Montanide ISA 720 (1:1). […]

## KLLSLIKGVIVHRLEGVEGPSLVTSEHELTCQAEGYPKAE (KLLSLIKGVIVHRLEGVEGPSLVTSEHELTCQAEGYPKAE-NH2) [PD-L1(130)]
Bleed 1Y + 3
  Immunogenicity (titers) 1′ Conc. 1:: 12800
Bleed 2Y + 1
  Immunogenicity (titers) 1′ Conc. 1:: 12800
Bleed 2Y + 2
  Immunogenicity (titers) 1′ Conc. 1:: >12800
Bleed 2Y + 3
  Immunogenicity (titers) 1′ Conc. 1:: 128000
Bleed 3Y + 1
  Immunogenicity (titers) 1′ Conc. 1:: 128000
Bleed 3Y + 2
  Immunogenicity (titers) 1′ Conc. 1:: 64000
Bleed 3Y + 3
  Immunogenicity (titers) 1′ Conc. 1:: 64000
Bleed 1Y + 3 (1to100), dilution 100, primary antibody dilution 1:100
  ELISA absorbance of sera: 1.571 and 1.562
Bleed 1Y + 3 (1to100), dilution 200, primary antibody dilution 1:200
  ELISA absorbance of sera: 1.513 and 1.428
Bleed 1Y + 3 (1to100), dilution 400, primary antibody dilution 1:400
  ELISA absorbance of sera: 1.359 and 1.348
Bleed 1Y + 3 (1to100), dilution 800, primary antibody dilution 1:800
  ELISA absorbance of sera: 1.151 and 1.105
Bleed 1Y + 3 (1to100), dilution 1,600
  ELISA absorbance of sera: 0.888 and 0.871
Bleed 1Y + 3 (1to100), dilution 3,200
  ELISA absorbance of sera: 0.580 and 0.528
Bleed 1Y + 3 (1to100), dilution 6,400
  ELISA absorbance of sera: 0.348 and 0.314
Bleed 1Y + 3 (1to100), dilution 12,800
  ELISA absorbance of sera: 0.204 and 0.196
Bleed 2Y + 1 (1to100), dilution 100, primary antibody dilution 1:100
  ELISA absorbance of sera: 1.492 and 1.522
Bleed 2Y + 1 (1to100), dilution 200, primary antibody dilution 1:200
  ELISA absorbance of sera: 1.511 and 1.473
Bleed 2Y + 1 (1to100), dilution 400, primary antibody dilution 1:400
  ELISA absorbance of sera: 1.450 and 1.355
Bleed 2Y + 1 (1to100), dilution 800, primary antibody dilution 1:800
  ELISA absorbance of sera: 1.299 and 1.243
Bleed 2Y + 1 (1to100), dilution 1,600
  ELISA absorbance of sera: 1.049 and 0.898
Bleed 2Y + 1 (1to100), dilution 3,200
  ELISA absorbance of sera: 0.757 and 0.652
Bleed 2Y + 1 (1to100), dilution 6,400
  ELISA absorbance of sera: 0.461 and 0.403
Bleed 2Y + 1 (1to100), dilution 12,800
  ELISA absorbance of sera: 0.286 and 0.239
Bleed 2Y + 2 (1to100), dilution 100
  ELISA absorbance of sera: 1.483 and 1.544
Bleed 2Y + 2 (1to100), dilution 200
  ELISA absorbance of sera: 1.510 and 1.484
Bleed 2Y + 2 (1to100), dilution 400
  ELISA absorbance of sera: 1.508 and 1.469
Bleed 2Y + 2 (1to100), dilution 800
  ELISA absorbance of sera: 1.407 and 1.322
Bleed 2Y + 2 (1to100), dilution 1,600
  ELISA absorbance of sera: 1.252 and 1.192
Bleed 2Y + 2 (1to100), dilution 3,200
  ELISA absorbance of sera: 0.977 and 0.852
Bleed 2Y + 2 (1to100), dilution 6,400
  ELISA absorbance of sera: 0.704 and 0.577
Bleed 2Y + 3 (1to1k), dilution 100
  ELISA absorbance of sera: 1.227 and 1.226
Bleed 2Y + 3 (1to1k), dilution 200
  ELISA absorbance of sera: 1.175 and 1.183
Bleed 2Y + 3 (1to1k), dilution 400
  ELISA absorbance of sera: 1.164 and 1.091
Bleed 2Y + 3 (1to1k), dilution 800
  ELISA absorbance of sera: 1.040 and 0.957
Bleed 2Y + 3 (1to1k), dilution 1,600
  ELISA absorbance of sera: 0.846 and 0.797
Bleed 2Y + 3 (1to1k), dilution 3,200
  ELISA absorbance of sera: 0.665 and 0.655
Bleed 2Y + 3 (1to1k), dilution 6,400
  ELISA absorbance of sera: 0.432 and 0.397
Bleed 3Y + 1 (1to1k), dilution 100
  ELISA absorbance of sera: 1.387 and 1.385
Bleed 3Y + 1 (1to1k), dilution 200
  ELISA absorbance of sera: 1.327 and 1.336
Bleed 3Y + 1 (1to1k), dilution 400
  ELISA absorbance of sera: 1.315 and 1.233
Bleed 3Y + 1 (1to1k), dilution 800
  ELISA absorbance of sera: 1.176 and 1.081
Bleed 3Y + 1 (1to1k), dilution 1,600
  ELISA absorbance of sera: 0.955 and 0.901
Bleed 3Y + 1 (1to1k), dilution 3,200
  ELISA absorbance of sera: 0.752 and 0.740
Bleed 3Y + 1 (1to1k), dilution 6,400
  ELISA absorbance of sera: 0.488 and 0.449
Bleed 3Y + 2 (1to1k), dilution 100
  ELISA absorbance of sera: 1.562 and 1.601
Bleed 3Y + 2 (1to1k), dilution 200
  ELISA absorbance of sera: 1.394 and 1.374
Bleed 3Y + 2 (1to1k), dilution 400
  ELISA absorbance of sera: 1.156 and 1.199
Bleed 3Y + 2 (1to1k), dilution 800
  ELISA absorbance of sera: 0.867 and 0.876
Bleed 3Y + 2 (1to1k), dilution 1,600
  ELISA absorbance of sera: 0.656 and 0.658
Bleed 3Y + 2 (1to1k), dilution 3,200
  ELISA absorbance of sera: 0.439 and 0.431
Bleed 3Y + 2 (1to1k), dilution 6,400
  ELISA absorbance of sera: 0.286
Bleed 3Y + 3 (1to1k), dilution 100
  ELISA absorbance of sera: 1.823 and 1.827
Bleed 3Y + 3 (1to1k), dilution 200
  ELISA absorbance of sera: 1.614 and 1.704
Bleed 3Y + 3 (1to1k), dilution 400
  ELISA absorbance of sera: 1.411 and 1.516
Bleed 3Y + 3 (1to1k), dilution 800
  ELISA absorbance of sera: 1.110 and 1.208
Bleed 3Y + 3 (1to1k), dilution 1,600
  ELISA absorbance of sera: 0.752 and 0.880
Bleed 3Y + 3 (1to1k), dilution 3,200
  ELISA absorbance of sera: 0.445 and 0.537
Bleed 3Y + 3 (1to1k), dilution 6,400
  ELISA absorbance of sera: 0.243
